# Experimental data: EP1997826A2, “Synthetic ligands for immunoglobulins and pharmaceutical compositions containing them” (Tecnogen S.p.A., priority 2007, dated 2008)
# Tested on: RBL 2H3 cells
# Assay: assay for degranulation of the RBL 2H3 cells (release of β-hexose-aminidase induced by anti-DNP IgE and DNP-BSA antigen)
# Assay type: cell-based, rat
# Text: The RBL 2H3 cell line, rat basophils that express the receptor with high affinity for the immunoglobulins of class E (FcεRl), is widely used for investigating allergic reactions, because in this cell line the chemical mediators of inflammation are released as a result of allergen specific-IgE-FcεRI binding.
# Release of the enzyme β-hexose-aminidase, which is present together with histamine in the granules of mast cells and basophils, can be used as an index of cellular degranulation (Tanaka et al., 1991, Chem. Pharm. Bull, 39, 2072-2076; McCloskey et al., 1988, Proc. Natl. Acad. Sci., USA, 85, 7260-7264).
# The activity of the enzyme β-hexose-aminidase, released by the stimulated RBL 2H3 cells, was determined by the method described by Yamanishi et al., 1995, Jour. Biotech. Biochem., 59 (7), 1272-1275, which envisages measurement of the enzymatic activity by measuring the absorbance of the product p-nitrophenol generated by the synthetic substrate p-nitrophenyl-N-acetyl-β-D-glucosamide. 1x10^5 RBL 2H3 cells, trypsinized from plates at confluence, were resuspended in a volume of 80 µl of the culture medium (MEM + 10% inactivated fetal bovine serum) and distributed in each well of the 96-well plates (Costar). After 24 hours, 20 µl of medium containing anti-2,4-dinitrophenol monoclonal IgEs (DNP, Sigma, Cat. No. D-8406) was added to each well.
# The microplates were incubated at 37°C for one hour and then washed three times with 100 µl of HBS buffer solution (10 mM HEPES, 135 mM NaCl, 5 mM KCI, 1 mM CaCl2, 0.5 mM MgCl2, 5.6 mM glucose, 0.1 % BSA, pH 7.4). After the washings, 100 µl of HBS containing the 2,4-dinitrophenol antigen conjugated to BSA (Sigma, Cat. No. A-6661) was added. As a control, 100 µl of HBS containing 1% Triton X-100 was added to some wells to determine the total amount of enzyme contained in the cellular granules.
# After further incubation at 37°C for two hours, 30 µl of cellular supernatant or of cellular lysate was transferred to a new microplate, to which 50 µl of sodium citrate buffer at pH 4.5, containing 4 mM p-nitrophenyl-N-acetyl-β-D-glucosaminide (Sigma, Cat. No. N9376), a specific substrate for the enzyme β-hexose-aminidase, had been added beforehand. After incubation for two hours at 37°C, the reaction was stopped by adding 100 µl of glycine solution 0.2 M, pH 10.7. The enzymatic activity was determined by measuring the absorbance at 405 nm with a Microplate Reader Model 3550 EIA (Bio-Rad).
# In preliminary experiments the immunoglobulins E and the antigen were added at various concentrations in order to determine the optimum concentrations for induction of the reaction of enzymatic release. The conditions identified experimentally correspond to 0.5 µg/ml of IgE and 0.05 µg/ml of antigen DNP conjugated to BSA.
# To verify the capacity of the peptides of formula IB and of comparative peptides for inhibiting the degranulation of the RBL 2H3 cells, the peptides were added in the assay together with the antigen at concentrations between 0.1 and 500 µg/ml.
substance,measurement,value
(H-L-Cys(p-MeOBzl)-L-Arg-L-Thr-L-Tyr)2-Lys-Gly-Lys-OH [ID],"inhibition of degranulation, result in words compared with peptide IB",Results similar to the results obtained with peptide IB
